Key:
[1] = target: T1, LRRK2 WT (Homo sapiens, UniProt Q5S007); test: In vitro kinase assay: LRRK2 autophosphorylation; type: biochemical; settings: for LRRK2 autophosphorylation Average ± SEM: compound 16 μM, phosphorylation normalized to absence of compound, mean ± S.E.M. of three experiments
[2] = target: T1, LRRK2 WT; test: In vitro kinase assay: LRRK2-mediated MBP phosphorylation; type: biochemical; settings: for MBP phosphorylation Average ± SEM: compound 16 μM, 30° C., 15 min, normalized to absence of compound, mean ± S.E.M. of three experiments

T1 sequence (Q5S007 whole entry): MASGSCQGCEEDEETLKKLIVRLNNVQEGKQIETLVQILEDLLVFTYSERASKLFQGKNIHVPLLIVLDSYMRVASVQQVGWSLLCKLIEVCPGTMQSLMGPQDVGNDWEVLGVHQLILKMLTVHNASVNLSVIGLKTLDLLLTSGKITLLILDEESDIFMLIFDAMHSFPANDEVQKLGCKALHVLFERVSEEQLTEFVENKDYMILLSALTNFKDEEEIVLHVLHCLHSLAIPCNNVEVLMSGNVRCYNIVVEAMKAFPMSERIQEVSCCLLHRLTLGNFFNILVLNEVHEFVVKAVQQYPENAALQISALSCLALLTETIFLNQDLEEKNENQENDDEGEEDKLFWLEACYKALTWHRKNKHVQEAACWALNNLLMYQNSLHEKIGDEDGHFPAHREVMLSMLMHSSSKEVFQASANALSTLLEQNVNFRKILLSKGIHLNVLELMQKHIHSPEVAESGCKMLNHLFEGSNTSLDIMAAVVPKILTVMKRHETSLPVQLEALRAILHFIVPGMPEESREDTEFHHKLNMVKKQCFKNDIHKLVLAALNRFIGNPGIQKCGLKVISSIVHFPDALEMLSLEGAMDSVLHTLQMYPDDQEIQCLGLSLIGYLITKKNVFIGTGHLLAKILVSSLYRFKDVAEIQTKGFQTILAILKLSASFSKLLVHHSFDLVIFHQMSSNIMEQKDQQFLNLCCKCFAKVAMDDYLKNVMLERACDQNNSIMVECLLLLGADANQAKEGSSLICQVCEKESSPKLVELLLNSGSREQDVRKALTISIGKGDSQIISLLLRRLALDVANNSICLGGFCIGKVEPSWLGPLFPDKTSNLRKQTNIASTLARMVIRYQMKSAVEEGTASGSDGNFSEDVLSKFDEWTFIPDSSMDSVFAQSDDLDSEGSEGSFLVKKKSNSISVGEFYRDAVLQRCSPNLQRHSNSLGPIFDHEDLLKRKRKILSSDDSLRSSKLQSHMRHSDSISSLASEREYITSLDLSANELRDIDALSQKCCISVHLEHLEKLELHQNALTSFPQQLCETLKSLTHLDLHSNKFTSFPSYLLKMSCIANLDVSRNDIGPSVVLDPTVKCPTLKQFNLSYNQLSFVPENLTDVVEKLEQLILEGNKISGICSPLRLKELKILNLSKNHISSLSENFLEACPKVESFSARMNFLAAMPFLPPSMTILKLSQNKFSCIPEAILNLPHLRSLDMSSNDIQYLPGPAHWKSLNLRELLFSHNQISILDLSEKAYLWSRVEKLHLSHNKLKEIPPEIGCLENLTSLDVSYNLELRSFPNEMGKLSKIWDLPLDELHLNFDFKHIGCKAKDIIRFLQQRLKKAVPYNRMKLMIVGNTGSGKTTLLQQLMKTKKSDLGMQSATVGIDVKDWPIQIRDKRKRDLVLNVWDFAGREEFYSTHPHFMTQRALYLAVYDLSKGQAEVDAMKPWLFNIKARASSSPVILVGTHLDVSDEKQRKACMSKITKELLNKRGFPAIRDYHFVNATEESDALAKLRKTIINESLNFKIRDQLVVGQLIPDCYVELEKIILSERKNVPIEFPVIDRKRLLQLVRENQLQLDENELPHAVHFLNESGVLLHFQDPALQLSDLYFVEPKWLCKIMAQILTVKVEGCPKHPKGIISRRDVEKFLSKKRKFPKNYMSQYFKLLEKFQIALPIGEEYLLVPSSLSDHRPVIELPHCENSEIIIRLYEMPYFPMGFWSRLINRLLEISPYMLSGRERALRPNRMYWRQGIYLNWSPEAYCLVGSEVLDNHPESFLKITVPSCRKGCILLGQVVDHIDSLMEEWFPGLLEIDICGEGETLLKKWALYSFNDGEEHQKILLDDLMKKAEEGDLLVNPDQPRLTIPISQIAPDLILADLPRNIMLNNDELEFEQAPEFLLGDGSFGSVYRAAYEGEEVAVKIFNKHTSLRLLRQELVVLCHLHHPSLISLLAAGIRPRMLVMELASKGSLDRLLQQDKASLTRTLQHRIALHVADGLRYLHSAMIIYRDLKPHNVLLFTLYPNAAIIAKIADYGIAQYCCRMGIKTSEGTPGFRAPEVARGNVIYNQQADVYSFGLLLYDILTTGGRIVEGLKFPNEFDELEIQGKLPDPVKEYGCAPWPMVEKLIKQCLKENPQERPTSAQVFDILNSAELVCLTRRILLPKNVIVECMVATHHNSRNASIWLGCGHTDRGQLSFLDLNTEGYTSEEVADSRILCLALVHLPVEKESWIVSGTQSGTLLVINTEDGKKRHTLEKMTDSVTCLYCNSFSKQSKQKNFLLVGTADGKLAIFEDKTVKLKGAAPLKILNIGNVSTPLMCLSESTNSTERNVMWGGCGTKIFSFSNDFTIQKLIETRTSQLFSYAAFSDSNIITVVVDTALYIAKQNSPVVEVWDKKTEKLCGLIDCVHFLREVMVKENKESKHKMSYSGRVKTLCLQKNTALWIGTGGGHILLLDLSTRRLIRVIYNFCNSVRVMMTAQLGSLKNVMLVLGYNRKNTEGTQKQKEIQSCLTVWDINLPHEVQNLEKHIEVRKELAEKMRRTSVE

LRRK2 autophosphorylation Average ± SEM [1]	MBP phosphorylation Average ± SEM [2]	Structure (SMILES)	effect on LRRK2 autophosphorylation ([1]; screen at 16 μM)	effect on LRRK2-mediated phosphorylation of MBP ([2]; screen at 16 μM)
71.6 ± 2.1 % of control	120.2 ± 39.6 % of control	O=S(=O)(c1cccc2c(Cl)cccc12)N1CCCNCC1 [Inhibitor 43]		
68.6 ± 35.5 % of control	118.2 ± 51.8 % of control	N#CC(C#N)=Cc1ccc(O)cc1 [Inhibitor 83]		
63.9 ± 12.0 % of control	124.1 ± 37.2 % of control	CC(C)CC(NC(=O)[C@H](CCC(=O)O)NC(=O)CNC(=O)c1ccc(/C=C/C(=O)O)cc1)C(N)=O (stereo partly shown) [Inhibitor 84]		
70.7 ± 4.2 % of control	123.7 ± 26.3 % of control	C=CC(=O)c1ccc2ccccc2c1 [Inhibitor 64]		
56.2 ± 30.8 % of control	111.7 ± 69.7 % of control	CC(C)n1cnc2c(NCc3ccccc3)nc(NCCO)nc21 [Inhibitor 45]		
68.5 ± 1.5 % of control	101.3 ± 25.3 % of control	CC(C)c1cc(/C=C(\C#N)C(=O)NCCCc2ccccc2)cc(C(C)C)c1O [Inhibitor 63]		
61.2 ± 9.6 % of control	131.7 ± 34.2 % of control	COc1cc2ncc(-c3ccccc3)nc2cc1OC [Inhibitor 55]		
84.3 ± 21.9 % of control	120.4 ± 64.7 % of control	O=S(=O)(c1cccc2cnccc12)N1CCCNCC1 [Inhibitor 38]		
82.3 ± 10.5 % of control	114.3 ± 14.1 % of control	N#CC(C#N)=Cc1ccc([N+](=O)[O-])c(O)c1 [Inhibitor 26]		

The remaining lines, values behind:

Structure (SMILES)	LRRK2 autophosphorylation Average ± SEM [1]	MBP phosphorylation Average ± SEM [2]	effect on LRRK2 autophosphorylation ([1]; screen at 16 μM)	effect on LRRK2-mediated phosphorylation of MBP ([2]; screen at 16 μM)
O=P(O)(O)CCc1ccc2ccccc2c1O [Inhibitor 21]	120.8 ± 54.1 % of control	138.2 ± 36.9 % of control		
N#CC(C#N)=Cc1cc(O)c(O)c([N+](=O)[O-])c1 [Inhibitor 17]	89 ± 54.9 % of control	116.0 ± 9.8 % of control		
OC[C@@H]1O[C@H](n2cnc3cc(Cl)c(Cl)cc32)[C@@H](O)[C@H]1O [Inhibitor 66]	56.4 ± 12.9 % of control	120.8 ± 78.0 % of control		
O=S(=O)(NCCNC/C=C/c1ccc(Br)cc1)c1cccc2cnccc12 [Inhibitor 35]	90.8 ± 2.5 % of control	85.3 ± 54.2 % of control		
C#COC1(C)[C@@H]2CC[C@@H](O2)C1(C)C(=O)O (stereo partly shown) [Inhibitor 71]	75.9 ± 2.1 % of control	99.8 ± 3.4 % of control		
CN[C@@H]1C[C@H]2O[C@@](C)([C@@H]1OC)n1c3ccccc3c3c4c(c5c6ccccc6n2c5c31)C(=O)NC4 [Inhibitor 6, Staurosporine, reference compound]	1.9 ± 1.0 % of control	9.2 ± 6.4 % of control	substantially inhibited	substantially inhibited
NCCNS(=O)(=O)c1cccc2cnccc12 [Inhibitor 5]	53.8 ± 34.5 % of control	58.3 ± 22.9 % of control		
C/C(O)=C(\C#N)C(=O)Nc1cc(Br)ccc1Br [Inhibitor 50]	66.8 ± 14.2 % of control	138.8 ± 53.5 % of control		
CN([C@@H](Cc1ccc(OS(=O)(=O)c2cccc3cnccc23)cc1)C(=O)N1CCN(c2ccccc2)CC1)S(=O)(=O)c1cccc2cnccc12 [Inhibitor 40]	83.1 ± 22.1 % of control	125.2 ± 68.8 % of control		
C[C@@]12C(=O)OC(=O)[C@]1(C)[C@H]1CC[C@@H]2O1 [Inhibitor 72]	69.1 ± 8.8 % of control	109.7 ± 22.4 % of control		

Source: patent US20150018301A1, “LRRK-2-Mediated Neuronal Toxicity” (THE JOHNS HOPKINS UNIVERSITY, priority 2009, published 2015)
